Patent publication US8314131B2, “Triazole fused heteroaryl compounds and methods of use thereof” (Amgen Inc., priority 2007, dated 2012)

Legend:
IL-1 = experiment: LPS induced IL-1 cell assay (LPS-induced release of IL-1β from monocytes); assay type: cell-based; conditions: Homo sapiens, Monocyte; LPS-activated monocytes
Description: Lipopolysaccharide-Activated Monocyte TNF Production Assay
Test compounds were evaluated in vitro for the ability to inhibit the production of TNF by monocytes activated with bacterial lipopolysaccharide (LPS). Fresh residual source leukocytes (a byproduct of plateletpheresis) were obtained from a local blood bank, and peripheral blood mononuclear cells (PBMCs) were isolated by density gradient centrifugation on Ficol-Paque Plus (Pharmacia). PBMCs were suspended at 2×10^6/mL in DMEM supplemented to contain 2% FCS, 10 mM, 0.3 mg/mL […], 100 U/mL penicillin G and […] streptomycin sulfate (complete media). Cells were plated into Falcon flat bottom, 96 well culture plates (200 μL/well) and cultured overnight at 37° C. and 6% CO2. Non-adherent cells were removed by washing with 200 μl/well of fresh medium. Wells containing adherent cells (˜70% monocytes) were replenished with 100 μL of fresh medium.
Preparation of Test Compound Stock Solutions
Test compounds were dissolved in […]. Compound stock solutions were prepared to an initial concentration of […]. Stocks were diluted initially to 20-200 μM in complete media. Nine two-fold serial dilutions of each compound were then prepared in complete medium.
Treatment of Cells with Test Compounds and Activation of TNF Production with Lipopolysaccharide
One hundred microliters of each test compound dilution were added to microtiter wells containing adherent monocytes and 100 μL complete medium. Monocytes were cultured with test compounds for 60 min at which time 25 μL of complete medium containing 30 ng/mL lipopolysaccharide from E. coli K532 were added to each well. Cells were cultured an additional 4 hrs. Culture supernatants were then removed and TNF presence in the supernatants was quantified using an ELISA.
Compounds of the invention can also be shown to inhibit LPS-induced release of IL-1β, IL-6 and/or IL-8 from monocytes by measuring concentrations of IL-1β, IL-6 and/or IL-8 by methods well known to those skilled in the art. […] Thus, the compounds of the invention may lower elevated levels of TNF-α, IL-1, IL-6, and IL-8 levels. Reducing elevated levels of these inflammatory cytokines to basal levels or below is favorable in controlling, slowing progression, and alleviating many disease states.

p38α = p38α (Homo sapiens, UniProt Q16539); experiment: p38 in-vitro HTRF enzyme assay; assay type: biochemical; conditions: recombinant human enzyme, read-out: p38a IC50
Description: p38 In-Vitro HTRF Enzyme Assay
The compounds of the invention can be tested for their respective affinities for the p38 protein using a conventional p38 in-vitro enzyme activity assay. For example, a P38-alpha HTRF assay may be used to measure the protein's in-vitro phosphorylation activity, and the data analyzed using time resolved fluorimetry techniques (FRET). A p38 HTRF assay is as follows. The kinase reaction buffer for p38α, p38β, p38δ and p38γ HTRF assays consists of 50 mM Tris-pH 7.5, 5 mM MgCl2, 0.1 mg/mL BSA, 100 μM Na3VO4 and 0.5 mM DTT. The HTRF detection buffer contains 100 mM HEPES-pH 7.5, 100 mM NaCl, 0.1% BSA, 0.05% Tween-20, and 10 mM EDTA. Each compound was dissolved in 100% DMSO and serially diluted (3 fold, 10 point) in a polypropylene 96-well microtiter plate (drug plate). The final starting concentration of the compound in the p38α […]and p38β enzymatic assays was about 1 μM. The final starting concentration of each compound in the p38δ and p38γ enzymatic assays was about 10 μM. The p38α, p38β, p38δ and p38γ kinase reactions were carried out in a polypropylene 96-well black round bottom assay plate in total volume of 30 μL kinase reaction buffer. Appropriate concentration of purified and activated enzyme (recombinant human) was mixed with indicated concentration of ATP and 100 nM GST-ATF2-Avitag, in the presence or absence (HI control) of each compound. In the absence of enzyme, the background was measured as LO control. HI controls and LO controls contained only DMSO. The reaction was allowed to incubate for 1 hour at RT. […] After 60 minutes incubation at room temperature, the assay plate was read in a Discovery Plate Reader. The wells were excited with coherent 320 nm light and the ratio of delayed ([…] post excitation) emissions at […] (native europium fluorescence) and 665 nm (europium fluorescence transferred to allophycocyanin—an index of substrate phosphorylation) was determined (Park et al, 1999). The resulting data was analyzed by taking the proportion of substrate phosphorylated in the kinase reaction in the presence of each individual compound and comparing it with that phosphorylated in the presence of DMSO vehicle alone (HI control). The data was calculated using the formula: % control (POC)=(compound−average LO)/(average HI−average LO)*100. Data (consisting of POC and inhibitor concentration in μM) was fitted to a 4-parameter equation (y=A+((B−A)/(1+((x/C)^D))), where A is the minimum y (POC) value, B is the maximum y (POC), C is the x (compound concentration) at the point of inflection and D is the slope factor, using a Levenburg-Marquardt non-linear regression algorithm. The inhibition constant (Ki) of the inhibitor was estimated from the IC50 (compound concentration at the point of inflection C) using the Cheng-Prussof equation: Ki=IC50/(1+S/Km), where S is the ATP substrate concentration, and Km is the Michaelis constant for ATP as determined experimentally. All results were expressed as the mean±the standard error of the mean. Data acquisition and non-linear regression algorithms were performed using Activity Base v5.2 and XLfit software v4.1 respectively. Additional assay information may be obtained in Park Y W, Cummings R T, Wu L, et al. Homogeneous Proximity Tyrosine Kinase Assays: Scintillation Proximity Assay versus Homogeneous Time-Resolved Fluorescence. Analytical Biochemistry. 1999; 269: 94-104.

[1] = tested on: THP1 cells (LPS-induced TNF-α); experiment: Lipopolysaccharide-activated THP1 cell TNF production assay; conditions: Homo sapiens, THP-1, TNF-α secretion, read-out: THP-1 cell based assay IC50
Description: Lipopolysaccharide-Activated THP1 Cell TNF Production Assay
THP1 cells are resuspended in fresh THP1 media (RPMI 1640, 10% heat-inactivated FBS, 1XPGS, 1XNEAA, plus 30 μM βME) at a concentration of 1E6/mL. One hundred microliters of cells per well are plated in a polystyrene 96-well tissue culture. One microgram per mL of bacterial LPS is prepared in THP1 media and is transferred to the wells. Test compounds are dissolved in 100% DMSO and are serially diluted 3-fold in a polypropylene 96-well microtiter plate (drug plate). HI control and LO control wells contain only DMSO. One microliter of test compound from the drug plate followed by 10 μL of LPS are transferred to the cell plate. The treated cells are induced to synthesize and secrete TNF-α at 37° C. for 3 h. Forty microliters of conditioned media are transferred to a 96-well polypropylene plate containing 110 μL of ECL buffer (50 mM Tris-HCl pH 8.0, 100 mM NaCl, 0.05% Tween 20, 0.05% NaN3 and 1% FBS) supplemented with 0.44 nM MAB610 monoclonal Ab (R&D Systems), 0.34 nM ruthenylated AF210NA polyclonal Ab (R&D Systems) and 44 μg/mL sheep anti-mouse M280 Dynabeads (Dynal). After a 2 h incubation at room temperature with shaking, the reaction is read on the ECL M8 Instrument (IGEN Inc.). A low voltage is applied to the ruthenylated TNF-α immune complexes, which in the presence of TPA (the active component in Origlo), results in a cyclical redox reaction generating light at […]. The amount of secreted TNF-α in the presence of compound compared with that in the presence of DMSO vehicle alone (HI control) is calculated using the formula: % control (POC)=(cpd−average LO)/(average HI−average LO)*100. Data (consisting of POC and inhibitor concentration in μM) is fitted to a 4-parameter equation (y=A+((B−A)/(1+((x/C)^D))), where A is the minimum y (POC) value, B is the maximum y (POC), C is the x (cpd concentration) at the point of inflection and D is the slope factor) using a Levenburg-Marquardt non-linear regression algorithm.

p38α, sequence (Q16539 whole entry): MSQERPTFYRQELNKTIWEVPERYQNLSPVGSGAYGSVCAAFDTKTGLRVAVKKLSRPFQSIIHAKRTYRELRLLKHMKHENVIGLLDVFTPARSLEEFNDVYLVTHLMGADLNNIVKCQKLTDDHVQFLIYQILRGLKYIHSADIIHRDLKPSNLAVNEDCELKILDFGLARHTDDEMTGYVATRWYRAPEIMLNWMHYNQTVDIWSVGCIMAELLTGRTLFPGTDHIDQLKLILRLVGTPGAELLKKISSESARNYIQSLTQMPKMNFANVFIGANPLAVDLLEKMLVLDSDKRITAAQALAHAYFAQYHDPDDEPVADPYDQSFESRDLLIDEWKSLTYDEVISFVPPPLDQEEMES

SMILES | IC50 (IL-1) | IC50 (p38α) | IC50 [1]
Cc1c(F)cc(C(=O)NC2CC2)cc1-c1ccc2c(c1)nnn2C(C)(C)C [Example 10, N-cyclopropyl-3-(1-(1,1-dimethylethyl)-1H-benzotriazol-5-yl)-5-fluoro-4-methylbenzamide] | 1000 to 5000 nM | < 25 nM | < 25 nM
Cc1c(F)cc(C(=O)NC2CC2)cc1-c1ccc2c(c1)nnn2-c1ccccc1Cl [Example 6, 3-(1-(2-chlorophenyl)-1H-benzotriazol-5-yl)-N-cyclopropyl-5-fluoro-4-methylbenzamide] | 100 to 250 nM | < 25 nM | < 25 nM
Cc1c(F)cc(C(=O)NC2CC2)cc1-c1ccc2c(c1)nnn2C1CCOCC1 [Example 11, N-cyclopropyl-3-fluoro-4-methyl-5-(1-(tetrahydro-2H-pyran-4-yl)-1H-benzotriazol-5-yl)benzamide] | 25 to 100 nM |  | 25 to 100 nM
Cc1cc(F)ccc1-n1nnc2cc(-c3cc(C(=O)NC4CC4)cc(F)c3C)ccc21 [Example 8, N-cyclopropyl-3-fluoro-5-(1-(4-fluoro-2-methylphenyl)-1H-benzotriazol-5-yl)-4-methylbenzamide] | 100 to 250 nM | < 25 nM | < 25 nM
Cc1ccc(C(=O)NC2CC2)cc1-c1ccc2c(c1)nnn2-c1ccccc1Cl [Example 7, 3-(1-(2-chlorophenyl)-1H-benzotriazol-5-yl)-N-cyclopropyl-4-methylbenzamide] | 1000 to 5000 nM | < 25 nM | 25 to 100 nM
Cc1c(F)cc(C(=O)Nc2ccnn2C)cc1-c1ccc2c(c1)nnn2-c1ccccc1Cl [Example 9, 3-(1-(2-chlorophenyl)-1H-benzotriazol-5-yl)-5-fluoro-4-methyl-N-(1-methyl-1H-pyrazol-5-yl)benzamide] | 25 to 100 nM | < 25 nM | < 25 nM
Cc1ccc(C(=O)NC2CC2)cc1-c1ccc2c(c1)nnn2C(C)C [Example 5, N-cyclopropyl-4-methyl-3-(1-(1-methylethyl)-1H-benzotriazol-5-yl)benzamide] | 1000 to 5000 nM | < 25 nM | 25 to 100 nM
Cc1ccc(C(=O)NC(C)C)cc1-c1ccc2c(c1)nnn2C(C)C [Example 4, 4-methyl-N-(1-methylethyl)-3-(1-(1-methylethyl)-1H-1,2,3-benzotriazol-5-yl)benzamide] | 1000 to 5000 nM | < 25 nM | 250 to 1000 nM
